Kd and Km data for three molecules are collected here from publication PMC3092583, “Enzyme Mechanism and Slow-Onset Inhibition of Plasmodium falciparum Enoyl-Acyl Carrier Protein Reductase by an Inorganic Complex” (2011).

The target in data set [1] is T1, P. falciparum ENR (PfENR), enoyl-acyl carrier protein reductase (Plasmodium falciparum, UniProt Q9BH77).
T1 construct: gene FabI
T1 sequence (Q9BH77 22-432): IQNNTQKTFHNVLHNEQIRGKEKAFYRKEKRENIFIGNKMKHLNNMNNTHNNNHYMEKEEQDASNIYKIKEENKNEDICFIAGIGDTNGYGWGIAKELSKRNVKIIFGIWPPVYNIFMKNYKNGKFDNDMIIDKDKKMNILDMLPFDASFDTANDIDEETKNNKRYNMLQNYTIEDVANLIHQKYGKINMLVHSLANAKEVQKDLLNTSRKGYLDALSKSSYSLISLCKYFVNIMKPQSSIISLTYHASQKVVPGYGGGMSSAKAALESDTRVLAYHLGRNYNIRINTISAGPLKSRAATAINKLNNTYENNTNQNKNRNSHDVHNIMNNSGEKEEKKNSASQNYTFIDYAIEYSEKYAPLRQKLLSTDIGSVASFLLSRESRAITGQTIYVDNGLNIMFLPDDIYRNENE
The experiment in a line: biochemical. The class given is binding.

Data set [2] deals with T1, P. falciparum ENR (PfENR), enoyl-acyl carrier protein reductase. The data set is described as follows: biochemical. The class given is binding. This is another data set of the same source.
Substrate in data set [3]: C/C=C/C(=O)SCCNC(=O)CCNC(=O)[C@H](O)C(C)(C)COP(=O)(O)OP(=O)(O)OC[C@H]1O[C@@H](n2cnc3c(N)ncnc32)[C@H](O)[C@@H]1OP(=O)(O)O
The data set is described as follows: steady-state initial velocity kinetics (KM) with purified enzyme; no fluorescence change with free enzyme. The class given is biochemical, Plasmodium falciparum. The settings on record: NADH proposed to bind to a modified form of the enzyme (F) after NAD+ release.

Read-outs that look alike come from different tables or passages of the source.

The Kd is the constant that tells how readily two partners part at equilibrium. A low value points to higher affinity. For orientation: Km means the concentration of substrate that gives half-maximal velocity.

`CCCC(=O)SCCNC(=O)CCNC(=O)[C@H](O)C(C)(C)COP(=O)(O)OP(=O)(O)OC[C@H]1O[C@@H](n2cnc3c(N)ncnc32)[C@H](O)[C@@H]1OP(=O)(O)O` [butyryl-CoA]: the Kd in data set [1] amounted to 1.15 mM. This lies in the millimolar range.

The molecule `NC(=O)C1=CN([C@@H]2O[C@H](COP(=O)(O)OP(=O)(O)OC[C@H]3O[C@@H](n4cnc5c(N)ncnc54)[C@H](O)[C@@H]3O)[C@@H](O)[C@H]2O)C=CC1` [NADH] yielded a Kd in data set [2] of 398 µM.

B1: P. falciparum ENR (PfENR), enoyl-acyl carrier protein reductase (Plasmodium falciparum) (protein)
chain: T1 sequence (Q9BH77 22-432)
B1: the Km in data set [3] stood at 63 µM.
